Measurements reported in ChEMBL document CHEMBL4507321 (2021).
Activity calls are given as the source filed them.

What was measured:
[1] = target: 5-hydroxytryptamine receptor 1E (Homo sapiens) (UniProt P28566); conditions: Compound concentration 10.0 uM
[2] = target: 5-hydroxytryptamine receptor 1D (Homo sapiens) (UniProt P28221); conditions: Compound concentration 10.0 uM
[3] = target: Alpha-2B adrenergic receptor (Homo sapiens) (UniProt P18089); conditions: Compound concentration 10.0 uM
[4] = target: 5-hydroxytryptamine receptor 2A (Homo sapiens) (UniProt P28223); conditions: Compound concentration 10.0 uM
[5] = target: Beta-1 adrenergic receptor (Homo sapiens) (UniProt P08588); conditions: Compound concentration 10.0 uM
[6] = target: Alpha-1A adrenergic receptor (Homo sapiens) (UniProt P35348); conditions: Compound concentration 10.0 uM
[7] = target: Alpha-1D adrenergic receptor (Homo sapiens) (UniProt P25100); conditions: Compound concentration 10.0 uM
[8] = target: Histamine H2 receptor (Homo sapiens) (UniProt P25021); conditions: Compound concentration 10.0 uM
[9] = target: Muscarinic acetylcholine receptor M1 (Homo sapiens) (UniProt P11229); conditions: Compound concentration 10.0 uM
[10] = target: 5-hydroxytryptamine receptor 1A (Homo sapiens) (UniProt P08908); conditions: Compound concentration 10.0 uM
[11] = target: D(3) dopamine receptor (Homo sapiens) (UniProt P35462); conditions: Compound concentration 10.0 uM
[12] = target: 5-hydroxytryptamine receptor 5A (Homo sapiens) (UniProt P47898); conditions: Compound concentration 10.0 uM
[13] = tested on: MEF; test: Cell growth of Fucci MEFs; assay type: functional, Mus musculus; conditions: Assay publication PMID: 30069049; Compound concentration 1 uM
[14] = species: Rattus norvegicus; conditions: Compound concentration 10.0 uM
[15] = target: T1, GABA-A receptor; anion channel (Rattus norvegicus) (UniProt O09028+P15431+P18506+P18508+P19969+P20236+P23574+P23576+P28471+P28473+P30191+P62813+P63079+P63138+Q91ZM7+Q9ES14); conditions: Compound concentration 10.0 uM
[16] = target: Histamine H1 receptor (Homo sapiens) (UniProt P35367); conditions: Compound concentration 10.0 uM
[17] = target: Histamine H4 receptor (Homo sapiens) (UniProt Q9H3N8); conditions: Compound concentration 10.0 uM
[18] = target: Mu-type opioid receptor (Homo sapiens) (UniProt P35372); conditions: Compound concentration 10.0 uM
[19] = target: D(1B) dopamine receptor (Homo sapiens) (UniProt P21918); conditions: Compound concentration 10.0 uM
[20] = target: 5-hydroxytryptamine receptor 1B (Homo sapiens) (UniProt P28222); conditions: Compound concentration 10.0 uM
[21] = target: 5-hydroxytryptamine receptor 3A (Homo sapiens) (UniProt P46098); conditions: Compound concentration 10.0 uM
[22] = target: Sigma non-opioid intracellular receptor 1 (Homo sapiens) (UniProt Q99720); conditions: Compound concentration 10.0 uM
[23] = target: Alpha-2C adrenergic receptor (Homo sapiens) (UniProt P18825); conditions: Compound concentration 10.0 uM
[24] = target: Muscarinic acetylcholine receptor M5 (Homo sapiens) (UniProt P08912); conditions: Compound concentration 10.0 uM
[25] = target: Muscarinic acetylcholine receptor M4 (Homo sapiens) (UniProt P08173); conditions: Compound concentration 10.0 uM
[26] = target: D(1A) dopamine receptor (Homo sapiens) (UniProt P21728); conditions: Compound concentration 10.0 uM
[27] = target: T1, GABA-A receptor; anion channel (Rattus norvegicus); conditions: Compound concentration 10.0 uM; remark: listed apart in the source
[28] = target: Alpha-1B adrenergic receptor (Homo sapiens) (UniProt P35368); conditions: Compound concentration 10.0 uM
[29] = target: Muscarinic acetylcholine receptor M2 (Homo sapiens) (UniProt P08172); conditions: Compound concentration 10.0 uM
[30] = target: Sigma intracellular receptor 2 (Homo sapiens) (UniProt Q5BJF2); conditions: Compound concentration 10.0 uM
[31] = target: 5-hydroxytryptamine receptor 2C (Homo sapiens) (UniProt P28335); conditions: Compound concentration 10.0 uM
[32] = target: D(4) dopamine receptor (Homo sapiens) (UniProt P21917); conditions: Compound concentration 10.0 uM
[33] = target: Beta-2 adrenergic receptor (Homo sapiens) (UniProt P07550); conditions: Compound concentration 10.0 uM
[34] = target: D(2) dopamine receptor (Homo sapiens) (UniProt P14416); conditions: Compound concentration 10.0 uM
[35] = target: Beta-3 adrenergic receptor (Homo sapiens) (UniProt P13945); conditions: Compound concentration 10.0 uM
[36] = target: Kappa-type opioid receptor (Homo sapiens) (UniProt P41145); conditions: Compound concentration 10.0 uM
[37] = target: 5-hydroxytryptamine receptor 2B (Homo sapiens) (UniProt P41595); conditions: Compound concentration 10.0 uM
[38] = target: 5-hydroxytryptamine receptor 7 (Homo sapiens) (UniProt P34969); conditions: Compound concentration 10.0 uM
[39] = target: Delta-type opioid receptor (Homo sapiens) (UniProt P41143); conditions: Compound concentration 10.0 uM
[40] = tested on: EMRK1184; test: Proliferation assay with EMRK1184 lymphoma cells; assay type: functional, cell-based; conditions: Mus musculus
[41] = target: Muscarinic acetylcholine receptor M3 (Homo sapiens) (UniProt P20309); conditions: Compound concentration 10.0 uM
[42] = target: 5-hydroxytryptamine receptor 6 (Homo sapiens) (UniProt P50406); conditions: Compound concentration 10.0 uM
[43] = target: T2, Sodium-dependent dopamine transporter (Homo sapiens, UniProt Q01959); conditions: Compound concentration 10.0 uM
[44] = target: Sodium-dependent noradrenaline transporter (Homo sapiens) (UniProt P23975); conditions: Compound concentration 10.0 uM
[45] = target: Alpha-2A adrenergic receptor (Homo sapiens, UniProt P08913); test: GPCRScan assay: inhibition of Alpha2A; parameters: radioligand conc. used [nm] 1.0 – 3.0, parental cells stable MDCK
[46] = target: Histamine H3 receptor (Homo sapiens) (UniProt Q9Y5N1); conditions: Compound concentration 10.0 uM
[47] = target: Methionine aminopeptidase 2 (Homo sapiens, UniProt P50579); test: Biochemical activity-MetAP2 using Co
[48] = target: Alpha-2A adrenergic receptor (Homo sapiens) (UniProt P08913); conditions: Compound concentration 10.0 uM
[49] = target: T2, Sodium-dependent dopamine transporter; test: GPCRScan assay: inhibition of DAT; parameters: radioligand conc. used [nm] 3.6 – 16.0, parental cells stable HEK
[50] = target: Sodium-dependent serotonin transporter (Homo sapiens) (UniProt P31645); conditions: Compound concentration 10.0 uM

T2 sequence (Q01959 whole entry): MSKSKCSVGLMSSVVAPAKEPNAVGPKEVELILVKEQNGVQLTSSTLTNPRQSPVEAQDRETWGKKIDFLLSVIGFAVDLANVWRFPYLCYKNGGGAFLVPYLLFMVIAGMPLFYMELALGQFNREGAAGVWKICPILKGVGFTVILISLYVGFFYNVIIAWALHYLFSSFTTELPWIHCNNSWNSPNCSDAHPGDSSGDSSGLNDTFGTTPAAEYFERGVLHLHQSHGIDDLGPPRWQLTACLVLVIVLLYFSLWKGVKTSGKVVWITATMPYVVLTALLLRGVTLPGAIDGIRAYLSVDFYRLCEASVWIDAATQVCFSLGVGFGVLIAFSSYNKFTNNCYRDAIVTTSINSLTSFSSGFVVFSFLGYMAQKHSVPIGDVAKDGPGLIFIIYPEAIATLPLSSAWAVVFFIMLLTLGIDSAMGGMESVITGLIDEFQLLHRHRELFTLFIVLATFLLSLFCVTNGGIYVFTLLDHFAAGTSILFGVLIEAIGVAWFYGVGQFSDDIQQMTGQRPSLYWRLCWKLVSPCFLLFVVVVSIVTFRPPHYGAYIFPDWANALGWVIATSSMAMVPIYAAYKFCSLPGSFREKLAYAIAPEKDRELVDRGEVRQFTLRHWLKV
Sequence of 5-hydroxytryptamine receptor 2C (Homo sapiens) (P28335 whole entry): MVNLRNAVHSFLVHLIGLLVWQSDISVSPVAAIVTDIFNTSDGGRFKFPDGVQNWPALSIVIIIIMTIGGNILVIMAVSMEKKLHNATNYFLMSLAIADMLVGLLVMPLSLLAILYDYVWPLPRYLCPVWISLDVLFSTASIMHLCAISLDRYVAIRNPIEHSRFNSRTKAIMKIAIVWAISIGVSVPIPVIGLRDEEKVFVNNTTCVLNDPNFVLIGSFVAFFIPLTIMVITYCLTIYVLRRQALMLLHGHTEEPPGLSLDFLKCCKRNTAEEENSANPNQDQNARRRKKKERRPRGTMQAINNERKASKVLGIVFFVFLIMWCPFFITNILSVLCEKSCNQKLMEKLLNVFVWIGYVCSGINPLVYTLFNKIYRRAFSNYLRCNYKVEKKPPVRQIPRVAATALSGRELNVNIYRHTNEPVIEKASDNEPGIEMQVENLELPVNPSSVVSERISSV
Sequence of Kappa-type opioid receptor (Homo sapiens) (P41145 whole entry): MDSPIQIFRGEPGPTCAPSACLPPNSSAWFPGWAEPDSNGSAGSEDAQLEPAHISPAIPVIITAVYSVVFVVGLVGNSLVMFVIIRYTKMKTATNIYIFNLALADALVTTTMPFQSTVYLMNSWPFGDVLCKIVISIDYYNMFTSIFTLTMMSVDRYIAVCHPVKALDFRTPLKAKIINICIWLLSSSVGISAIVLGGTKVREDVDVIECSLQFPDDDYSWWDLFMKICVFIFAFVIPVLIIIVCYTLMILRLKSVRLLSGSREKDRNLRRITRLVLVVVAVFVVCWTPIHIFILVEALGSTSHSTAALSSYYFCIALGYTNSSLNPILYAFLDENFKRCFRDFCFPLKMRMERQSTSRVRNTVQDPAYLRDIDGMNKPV
Sequence of 5-hydroxytryptamine receptor 3A (Homo sapiens) (P46098 whole entry): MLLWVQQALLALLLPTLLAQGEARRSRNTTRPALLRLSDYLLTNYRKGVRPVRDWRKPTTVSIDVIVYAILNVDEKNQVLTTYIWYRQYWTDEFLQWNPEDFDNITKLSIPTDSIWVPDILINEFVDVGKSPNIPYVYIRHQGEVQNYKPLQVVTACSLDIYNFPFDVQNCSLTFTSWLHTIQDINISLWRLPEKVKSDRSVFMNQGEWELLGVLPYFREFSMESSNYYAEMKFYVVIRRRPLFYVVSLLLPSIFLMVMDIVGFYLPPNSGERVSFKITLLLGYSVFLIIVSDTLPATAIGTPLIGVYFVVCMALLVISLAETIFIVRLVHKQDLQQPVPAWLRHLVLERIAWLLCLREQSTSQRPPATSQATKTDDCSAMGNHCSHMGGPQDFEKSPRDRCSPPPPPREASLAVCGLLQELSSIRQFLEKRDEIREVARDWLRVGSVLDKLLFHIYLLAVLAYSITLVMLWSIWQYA
Sequence of D(1A) dopamine receptor (Homo sapiens) (P21728 whole entry): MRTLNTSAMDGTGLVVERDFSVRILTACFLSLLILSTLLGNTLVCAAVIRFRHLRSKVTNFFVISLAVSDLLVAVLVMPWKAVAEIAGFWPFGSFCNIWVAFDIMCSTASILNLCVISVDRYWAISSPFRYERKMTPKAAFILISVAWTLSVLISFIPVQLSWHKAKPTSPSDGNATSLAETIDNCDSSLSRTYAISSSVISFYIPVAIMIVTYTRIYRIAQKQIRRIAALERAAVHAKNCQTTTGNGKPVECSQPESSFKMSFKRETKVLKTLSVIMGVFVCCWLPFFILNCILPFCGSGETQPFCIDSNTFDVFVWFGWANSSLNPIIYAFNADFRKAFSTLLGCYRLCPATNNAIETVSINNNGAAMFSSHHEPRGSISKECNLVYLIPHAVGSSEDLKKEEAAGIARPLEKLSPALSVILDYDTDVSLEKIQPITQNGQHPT
Sequence of Alpha-2C adrenergic receptor (Homo sapiens) (P18825 whole entry): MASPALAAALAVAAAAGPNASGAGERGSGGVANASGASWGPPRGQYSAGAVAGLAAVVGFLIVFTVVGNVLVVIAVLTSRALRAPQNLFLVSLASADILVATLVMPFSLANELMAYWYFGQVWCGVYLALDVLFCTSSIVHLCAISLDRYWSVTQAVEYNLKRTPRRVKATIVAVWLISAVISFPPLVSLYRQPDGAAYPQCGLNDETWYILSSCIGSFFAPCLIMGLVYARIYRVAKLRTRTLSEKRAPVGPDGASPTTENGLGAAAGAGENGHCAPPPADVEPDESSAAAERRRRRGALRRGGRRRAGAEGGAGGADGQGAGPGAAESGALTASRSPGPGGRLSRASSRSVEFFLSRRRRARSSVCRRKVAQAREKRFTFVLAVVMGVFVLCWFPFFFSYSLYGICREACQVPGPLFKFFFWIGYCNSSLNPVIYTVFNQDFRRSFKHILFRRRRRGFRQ
Sequence of Histamine H1 receptor (Homo sapiens) (P35367 whole entry): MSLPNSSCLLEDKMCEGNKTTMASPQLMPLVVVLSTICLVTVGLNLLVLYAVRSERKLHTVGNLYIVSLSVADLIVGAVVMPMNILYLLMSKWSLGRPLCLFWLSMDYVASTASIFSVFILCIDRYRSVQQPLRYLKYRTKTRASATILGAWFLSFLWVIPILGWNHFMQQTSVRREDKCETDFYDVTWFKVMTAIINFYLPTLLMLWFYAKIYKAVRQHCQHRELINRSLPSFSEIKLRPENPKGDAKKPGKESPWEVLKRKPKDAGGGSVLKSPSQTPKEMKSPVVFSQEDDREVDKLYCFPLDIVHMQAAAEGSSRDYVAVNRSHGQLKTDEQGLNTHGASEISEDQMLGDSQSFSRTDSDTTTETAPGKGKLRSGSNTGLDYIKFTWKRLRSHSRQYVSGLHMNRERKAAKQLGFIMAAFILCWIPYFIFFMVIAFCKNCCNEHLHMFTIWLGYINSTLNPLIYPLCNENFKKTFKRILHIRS
Sequence of 5-hydroxytryptamine receptor 1B (Homo sapiens) (P28222 whole entry): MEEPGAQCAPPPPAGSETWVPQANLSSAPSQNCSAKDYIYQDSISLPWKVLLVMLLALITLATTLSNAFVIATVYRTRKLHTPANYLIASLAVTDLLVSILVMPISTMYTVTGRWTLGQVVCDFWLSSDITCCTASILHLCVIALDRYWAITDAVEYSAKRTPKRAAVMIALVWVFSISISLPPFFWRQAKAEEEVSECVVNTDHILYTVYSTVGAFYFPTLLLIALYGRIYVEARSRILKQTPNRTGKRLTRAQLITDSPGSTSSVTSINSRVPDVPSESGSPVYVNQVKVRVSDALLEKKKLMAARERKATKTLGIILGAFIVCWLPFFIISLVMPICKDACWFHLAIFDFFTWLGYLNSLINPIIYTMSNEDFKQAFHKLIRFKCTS
Sequence of Alpha-1B adrenergic receptor (Homo sapiens) (P35368 whole entry): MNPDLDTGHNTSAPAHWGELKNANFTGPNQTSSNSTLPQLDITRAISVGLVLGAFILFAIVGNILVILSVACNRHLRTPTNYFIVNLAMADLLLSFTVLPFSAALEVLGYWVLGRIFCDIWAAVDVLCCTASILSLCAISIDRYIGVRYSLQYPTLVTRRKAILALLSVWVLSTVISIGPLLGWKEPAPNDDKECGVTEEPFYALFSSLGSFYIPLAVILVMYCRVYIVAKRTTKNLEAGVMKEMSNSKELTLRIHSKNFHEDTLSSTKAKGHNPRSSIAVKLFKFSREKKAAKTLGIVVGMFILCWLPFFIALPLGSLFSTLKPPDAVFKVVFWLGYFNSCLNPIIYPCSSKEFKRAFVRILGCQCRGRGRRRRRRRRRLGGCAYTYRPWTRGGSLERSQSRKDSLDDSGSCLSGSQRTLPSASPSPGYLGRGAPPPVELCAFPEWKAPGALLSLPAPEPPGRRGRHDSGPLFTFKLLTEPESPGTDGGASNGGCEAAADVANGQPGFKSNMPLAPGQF
Sequence of 5-hydroxytryptamine receptor 5A (Homo sapiens) (P47898 whole entry): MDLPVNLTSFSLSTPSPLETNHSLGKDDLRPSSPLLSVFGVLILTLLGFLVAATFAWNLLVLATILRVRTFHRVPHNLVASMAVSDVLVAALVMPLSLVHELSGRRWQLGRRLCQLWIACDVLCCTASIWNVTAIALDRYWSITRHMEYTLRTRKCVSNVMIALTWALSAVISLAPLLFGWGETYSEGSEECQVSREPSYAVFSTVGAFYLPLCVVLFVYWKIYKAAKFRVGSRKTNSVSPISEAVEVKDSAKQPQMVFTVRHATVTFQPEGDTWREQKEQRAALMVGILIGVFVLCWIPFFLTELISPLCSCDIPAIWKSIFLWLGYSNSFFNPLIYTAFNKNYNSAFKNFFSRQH
Sequence of Sigma intracellular receptor 2 (Homo sapiens) (Q5BJF2 whole entry): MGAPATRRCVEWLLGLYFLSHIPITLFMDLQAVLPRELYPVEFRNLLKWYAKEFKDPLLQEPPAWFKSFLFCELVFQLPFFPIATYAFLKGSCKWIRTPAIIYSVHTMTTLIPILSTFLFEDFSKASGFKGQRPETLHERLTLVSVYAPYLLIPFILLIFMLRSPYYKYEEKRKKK

O=C(NNS(=O)(=O)c1ccccc1F)c1cc(F)cc(-c2ccccn2)c1 [WM-1119]
active: inhibition [27] 75.7% | inhibition [34] 79.6% | IC50 [40] 0.25 µM
0: Cell cycle effect [13]
inactive: inhibition [1] 13.8% | inhibition [2] -0.66% | inhibition [3] -3.78% | inhibition [4] -7.37% | inhibition [5] -0.13% | inhibition [6] 9.59% | inhibition [7] 3.2% | inhibition [8] 5.32% | inhibition [9] 0.14% | inhibition [10] 16% | inhibition [11] 4.97% | inhibition [12] -9.77% | inhibition [14] 47% | inhibition [15] 11.7% | inhibition [16] -8.33% | inhibition [17] -2.44% | inhibition [18] 3.45% | inhibition [19] 4.57% | inhibition [20] 13.6% | inhibition [21] 32.9% | inhibition [22] 35.7% | inhibition [23] 10.2% | inhibition [24] -8.87% | inhibition [25] 20.4% | inhibition [26] -3.67% | inhibition [28] 7.18% | inhibition [29] 15.9% | inhibition [30] 19.9% | inhibition [31] 6.46% | inhibition [32] 23.8% | inhibition [33] 13.2% | inhibition [35] 16.3% | inhibition [36] 5.23% | inhibition [37] 2.94% | inhibition [38] -3.75% | inhibition [39] 20.6%

O=C(NNS(=O)(=O)c1ccccc1)c1cc(-c2ccnnc2)ccc1F [WM-2474]
< 5: pKi [45] | pKi [49]
inactive: inhibition [1] 13.1% | inhibition [3] 3.07% | inhibition [41] 13% | inhibition [4] 11.8% | inhibition [42] 2.65% | inhibition [5] 11.2% | inhibition [6] 18.6% | inhibition [7] 17.4% | inhibition [8] -5.93% | inhibition [44] -2.4% | inhibition [9] 43.3% | inhibition [10] 23.1% | inhibition [11] -8.61% | inhibition [12] -0.06% | inhibition [14] -3.6% | inhibition [15] 4.55% | inhibition [16] -2.04% | inhibition [18] 26.1% | inhibition [46] 15.5% | inhibition [19] 5.79% | inhibition [20] 11% | inhibition [21] 4.55% | inhibition [22] 19.1% | inhibition [23] -5.42% | inhibition [26] 8.58% | inhibition [27] 34.6% | inhibition [28] -3.44% | inhibition [29] -5.57% | inhibition [30] 40.1% | inhibition [31] 7.81% | inhibition [32] 9.83% | inhibition [33] 10.4% | inhibition [34] 14.7% | inhibition [36] -5.1% | inhibition [37] 40.1% | inhibition [38] -1.87% | inhibition [39] 7.99% | inhibition [50] 6.15%
active: inhibition [43] 80.2% | inhibition [48] 68.5%
> 50 µM (not active): IC50 [47]
> 10 µM: Ki [45] | Ki [49]
0: Cell cycle effect [13]
